Test results published in the SangsterLogP compilation.

Test: from Draber, W.; Büchel, H.; Dickore, K.; Trebst, A.; Pistorius, E. (1969). Structure-activity correlation of 1,2,4-triazinones, a new group of photosynthesis inhibitors. In: Progress in Photosynthesis …
Settings: pH 7.0

| logD | SMILES |
| --- | --- |
| 0.3 | CNc1nnc(C(C)C)c(=O)n1N |
| 0.38 | CSc1nnc(C2CCCCO2)c(=O)n1N (stereo not given) |
| 0.49 | CC(C)c1nnc(N2CCOCC2)n(N)c1=O |
| -0.06 | COc1nnc(C(C)C)c(=O)n1N |
| 0.46 | CCc1nnc(SC)n(N)c1=O |
| 0.38 | CSc1nncc(=O)n1N |
| 1.52 | CCSc1nnc(C(C)C)c(=O)n1N |
| 2.68 | CCCCCCc1nnc(SC)n(N)c1=O |
| 2.07 | CC(C)c1nnc(SCC(=O)c2ccccc2)n(N)c1=O |
| 2.12 | CCCSc1nnc(C(C)C)c(=O)n1N |
| 1.66 | CSc1nnc(-c2ccccc2)c(=O)n1N |
| 1.78 | CCCCNc1nnc(C(C)C)c(=O)n1N |
| 1.85 | CSc1nnc(CCC(C)C)c(=O)n1N |
| 2.06 | CC(C)Sc1nnc(C(C)C)c(=O)n1N |

| SMILES | logD |
| --- | --- |
| CSc1nnc(C(C)(C)C)c(=O)n1N | 1.7 |
